Data: patent US20250367171A1, “THERAPEUTIC OR PROPHYLACTIC AGENT FOR PERIPHERAL NEUROPATHIES” (Toray Industries, Inc., priority 2017, published 2025)

Legend:
Format in all cases: in vivo
[1] = system: rat streptozotocin-induced diabetes model; assay: Mechanical allodynia (von Frey test) in rat streptozotocin-induced diabetes model; details: day 28, 3 hours after administration, vs vehicle group
Protocol: Streptozotocin (50 mg/kg, Sigma-Aldrich) was administered intravenously to SD rats (6 weeks old, male; CHARLES RIVER LABORATORIES JAPAN, INC.) via the tail vein, thereby preparing a streptozotocin-induced diabetes model. Streptozotocin was dissolved in physiological saline (Otsuka Pharmaceutical Factory, Inc.) to prepare a 25 mg/mL solution and then administered. Further, a pseudo-induction animal was also prepared by administering physiological saline instead of the streptozotocin solution. The initial day of administration was designated as day 0 after induction of pathological conditions.
[…] Groups were composed of 4 groups: a pseudo-induction and solvent administration group (sham group); a pathological condition-induced and solvent administration group (vehicle group); a pathological condition-induced and compound 1 (10 mg/kg) administration group (compound 1 (10 mg/kg) group); and a pathological condition-induced and compound 1 (30 mg/kg) administration group (compound 1 (30 mg/kg) group).
Beneficial effects on mechanical allodynia were evaluated in a manner similar to Example 5, and this evaluation was performed at 3 hours after administration of compound 1 on day 28 after induction of pathological conditions.

[2] = system: rat cisplatin-induced peripheral neuropathy model; assay: Mechanical allodynia (von Frey test) in rat cisplatin-induced peripheral neuropathy model; details: 10 mg/kg oral single dose, day 34, 2 hours after administration, vs vehicle group
Protocol: Cisplatin (Wako Pure Chemical Industries, Ltd.) was intraperitoneally administered to SD rats (6 weeks old, male; CHARLES RIVER LABORATORIES JAPAN, INC.) intermittently twice a week (1 or 2 mg/kg) for 5 weeks, thereby preparing a cisplatin-induced peripheral neuropathy model. Cisplatin was dissolved in physiological saline to a concentration of 10 mg/mL and then administered. As a control (pseudo-induction), physiological saline was administered. The initial day of administration was designated as day 1 after induction of pathological conditions.
On day 34 after induction of pathological conditions, a solution containing compound 1 (10 mg/kg) or a solvent thereof (water for injection) was orally administered to rats. Groups were composed of 3 groups: a pseudo-induction and solvent administration group (sham group); a pathological condition-induced and solvent administration group (vehicle group); and a pathological condition-induced and compound 1 (10 mg/kg) administration group (compound 1 (10 mg/kg) group).
Beneficial effects on mechanical allodynia were evaluated in a manner similar to Example 5 and this evaluation was performed before and 2 hours after administration of compound 1 on day 34 after induction of pathological conditions.

[3] = system: rat oxaliplatin-induced peripheral neuropathy model; assay: Mechanical allodynia (von Frey test) in rat oxaliplatin-induced peripheral neuropathy model; details: day 18 after induction, vs vehicle group
Protocol: Oxaliplatin (4 mg/kg, Elplat I.V. infusion solution […]; Yakult) was administered to SD rats (7 weeks old, male; CHARLES RIVER LABORATORIES JAPAN, INC.) in a cycle of 1 week (intraperitoneally administered twice, two consecutive days per week) for 2 or 3 weeks, thereby preparing an oxaliplatin-induced peripheral neuropathy model. As a control (pseudo-induction), a 5% glucose solution (Otsuka Pharmaceutical Factory, Inc.) was administered. The initial day of administration was designated as day 0 after induction of pathological conditions. […]
Beneficial effects on mechanical allodynia were evaluated before induction of pathological conditions and on day 18 after induction of pathological conditions (before the 1st administration of compound 1). Beneficial effects on mechanical allodynia were evaluated by von Frey test. The test method was performed according to the method described in the known literature (Chaplan et al. Journal of Neuroscience Methods, 1994, Vol. 53, p. 55-63) using von Frey filaments (North Coast Medical) so that 50% response threshold was calculated.

[4] = system: rat streptozotocin-induced diabetes model; assay: Nerve conduction velocity in rat streptozotocin-induced diabetes model; details: 10 mg/kg oral twice a day, days 14 to 28 after induction, vs vehicle group
Protocol: Streptozotocin (50 mg/kg, Sigma-Aldrich) was administered intravenously to SD rats (6 weeks old, male; CHARLES RIVER LABORATORIES JAPAN, INC.) via the tail vein, thereby preparing the streptozotocin-induced diabetes model. Streptozotocin was dissolved in a citrate buffer to prepare a 25 mg/mL solution, and then administered. A no pathological condition-induced animal was prepared by administering no streptozotocin solution. The day of initial administration was designated as day 1 after induction of pathological conditions.
On days 14 to 28 after induction of pathological conditions, a solution containing compound 1 (3 or 10 mg/kg) or a solvent thereof (water for injection) was orally administered to rats twice a day. […]
Nerve conduction velocity was measured within 3 days from the next day of the final administration. […] A-B stimulation and B-C stimulation were designated as distal stimulation and proximal stimulation, respectively, and then the transmission time of stimulation was analyzed on the basis of each lead-out waveform obtained from the electrode at the footpad. Nerve conduction velocity was calculated on the basis of a difference in transmission time between the distal stimulation and the proximal stimulation and the distance between the electrodes.

CN(C)C1CCN(C(=O)C[C@H](O)c2nccn2C)CC1 [Compound 1, (S)-1-(4-(dimethylamino)piperidin-1-yl)-3-hydroxy-3-(1-methyl-1H-imidazol-2-yl)propan-1-one]
50% response threshold in von Frey test (mechanical allodynia) ([1]; 10 mg/kg oral single dose): significant increases in 50% response threshold
50% response threshold in von Frey test (mechanical allodynia) ([1]; 30 mg/kg oral single dose): significant increases in 50% response threshold
50% response threshold in von Frey test (mechanical allodynia) [2]: significant increase in 50% response threshold
50% response threshold in von Frey test (mechanical allodynia) ([3]; 3 mg/kg oral twice a day): significant increase in 50% response threshold
50% response threshold in von Frey test (mechanical allodynia) ([3]; 10 mg/kg oral twice a day): significant increase in 50% response threshold
nerve conduction velocity [4]: Significant increases in nerve conduction velocity
